Where a name gives a salt, the structure may show the parent alone. Read-outs that look alike come from different tables or passages of the source.
How the values were obtained:
[1] = rats fed three weeks, right femur calcium; cited from earlier work
[2] = without aluminum-containing drugs; normally functioning kidneys; cited from earlier work
[3] = Aluminum content of calcium sources; details: analysis of commercially available compounds
From the text: ^1 Values determined by analysis of commercially available compounds.

[4] = Recovery of vitamin D3 at 0-time; type: physicochemical
From the text: The low pH beverage, the vitamin D3 emulsion and the powder beverage are saponified with methanolic potassium hydroxide to destroy the fat and release the vitamin D3 for extraction. The saponified samples are extracted with an ether/pentane mixture and the extracts are evaporated to dryness using nitrogen and reconstituted with iso-octane. Sample extracts are eluted on a cleanup HPLC column (cyanopropyl bonded silica), and column switching is used to transfer a "slice" of the eluant containing vitamin D3 onto an additional HPLC analytical column (aminopropyl bonded silica) for final quantitation. The vitamin D3 peak in the sample is quantitated using a linear regression external standard curve.
To compare the initial processing loss and stability of vitamin D3 of each variable with successive batches, two criteria were routinely measured: (1) % recovery of vitamin D3 at 0-time; and (2) half life of vitamin D3 (t1/2).
The % recovery of vitamin D3 of each batch was calculated by dividing the 0-time vitamin D3 result by the theoretical fortification of each batch times 100%. […] As used herein "theoretical fortification" refers to amount of vitamin D3 added to the product. As used herein "0-time" refers to the time of initial vitamin D3 analysis of the product. […]

[5] = Protocol: In this evaluation solubility was determined by a visual examination.
[6] = in orange juice and apple juice; cited from earlier work
[7] = test system: aciduric and acidophilic organisms like certain varieties of yeasts and molds; details: pH reduced from 4.5 to 3.0; cited from earlier work
[8] = weak acid; cited from earlier work
[9] = Acid-base and calcium binding constants of glycerophosphate; type: physicochemical; details: Henderson-Hasselbalch equation; listed as GP
From the text: GaGP binds calcium with an approximate formation constant of 1.7. CaGP, when dissolved in water, dissociates readily to provide "free" calcium ions and protonated glycerophosphate species. […] On the other hand, anions, such as malate, tartrate, propionate or succinate, do provide buffer capacity at pH=3.6, and accordingly require more base or acid than GP for final adjustment of pH.

[10] = Titratable acidity of calcium sources; type: physicochemical; details: with the exception of calcium chloride
From the text: Acidity is desired in the liquid nutritional product of the present invention for several reasons such as: to maintain the calcium salt solubility, to complement flavor, to control microbial growth, and to enhance the role of preservatives, specifically potassium benzoate or sodium benzoate. On the other hand, too much acidity can result in increased tartness and sourness that make the product undesirable from a sensory point of view. […] Titratable acidity is an indication of the total acidity of a beverage.

[11] = piglets; cited from earlier work
[12] = low birth weight infants; cited from earlier work
[13] = 600-800 IU/day; elderly, homebound or institutionalized individuals; cited from earlier work

## O=C(O)CC(O)(CC(=O)O)C(=O)O [Calcium Citrate, calcium citrate]
[1]
  relative calcium bioavailability as compared to a control: 110%
[2]
  risk of aluminum toxicity: does not pose a risk of aluminum toxicity

## [Ca+2].[OH-].[OH-] [Calcium Hydroxide]
[3]
  Aluminum Content: 300-400 parts per million (ppm)

## N[C@@H](CS)C(=O)O [Cysteine]
[4]
  vitamin D3 recovery, in words: did not affect vitamin D3 recovery

## O=C(O)[C@H](O)[C@@H](O)[C@H](O)[C@H](O)CO [D-Gluconic-Acid, D-gluconic acid (hemicalcium salt)]
[5]
  solubility at 1 month, pH 5.0: partially Soluble

## O=C(CO)[C@@H](O)[C@H](O)[C@H](O)CO [Fructose]
[6]
  calcium bioavailability from CCM: promoted positive calcium bioavailability

## O=P([O-])([O-])[O-].O=P([O-])([O-])[O-].[Ca+2].[Ca+2].[Ca+2] [Tricalcium Phosphate, tricalcium phosphate]
[1]
  relative calcium bioavailability as compared to a control: 110%

## O=C(O)c1ccccc1 [benzoic acid]
[7]
  preservative effect on reducing pH: increased by nearly three times

## O=P(O)(O)OCC(O)CO (centres unmarked) [glycerophosphate]
[8]
  pKf: 6.1
[9]
  effective acid-base buffering pH range / buffering capacity: insignificant buffering capacity at pH=3.6

## Calcium Glycerophosphate [CaGP]
[10]
  titratable acidity, in words: lowest titratable acidity
[11]
  effectiveness as a source of calcium in TPN solutions: as effective as calcium gluconate
[12]
  effectiveness as a source of calcium in TPN solutions: as effective as calcium gluconate

## vitamin D
[13]
  effect on calcium balance and fracture risk: improve calcium balance and reduce fracture risk

— patent publication US5597595A, “Low pH beverage fortified with calcium and vitamin D” (Abbott Laboratories, priority 1995, dated 1997)
